Experimental data as given in paper PMC11275795 (bioRxiv, 2024).

Target: FIGNL1∆N (Homo sapiens, UniProt Q6PIW4)
Conditions: activity enhanced by RAD51 or its N-terminal peptide

Chain of FIGNL1∆N (Q6PIW4 287-674): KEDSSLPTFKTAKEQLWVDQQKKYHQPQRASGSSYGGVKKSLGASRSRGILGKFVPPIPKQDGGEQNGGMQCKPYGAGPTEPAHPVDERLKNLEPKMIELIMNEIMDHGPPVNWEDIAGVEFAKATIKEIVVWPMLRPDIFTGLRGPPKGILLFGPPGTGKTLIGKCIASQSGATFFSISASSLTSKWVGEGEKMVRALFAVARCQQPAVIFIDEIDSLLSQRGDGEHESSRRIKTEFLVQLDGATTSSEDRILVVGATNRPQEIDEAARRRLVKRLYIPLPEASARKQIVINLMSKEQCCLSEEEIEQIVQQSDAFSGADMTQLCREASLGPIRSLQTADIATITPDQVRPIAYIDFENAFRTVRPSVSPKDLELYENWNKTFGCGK

With `Nc1ncnc2c1ncn2[C@@H]1O[C@H](COP(=O)(O)OP(=O)(O)OP(=O)(O)O)[C@@H](O)[C@H]1O` [ATP] as the molecule, how does the ATPase assay read?
The ATPase assay was “The ATPase activity of FIGNL1∆N is enhanced in the presence of RAD51”.
